Data set [1] can be described thus: Solubility in water / aqueous solution. It counts as physicochemical.
Data set [2] is described as follows: Stability of maltol in hot aqueous solution. It counts as physicochemical. The conditions noted are these: near boiling temperatures.
The conditions of data set [3]: hydrated ion in aqueous solution; cited from earlier work.

`Cc1occc(=O)c1O` [maltol, 3-hydroxy-2-methyl-4-pyrone]: in data set [1] (aqueous alkali hydroxide solutions), the “solubility in aqueous alkali hydroxide solutions” value is reported as “very soluble”. For the same compound, the solubility on heating in data set [1] (heating to near boiling temperatures) is 10 g/100 ml; in data set [1] (water, heating to temperatures above 60° C.) it was “up to 10 g/100 ml”. In addition, the “solubility at low pH” value in data set [1] (low pH values of iron chloride solutions (pH 1-5)) is recorded as “virtually insoluble”. Further, in data set [1] (water, pH range 6-8, 20° C.), the maximum aqueous solubility turned out to be 1 g/100 ml. For the same compound, the “stability in aqueous solution” value in data set [2] is “stable”.
On to `[Cl][Fe]([Cl])[Cl]` [Ferric chloride], for which the Ka in data set [3] was 7×10^−3.
In the case of `Cc1occc(=O)c1[O-].Cc1occc(=O)c1[O-].Cc1occc(=O)c1[O-].[Fe+3]` [ferric trimaltol], the “maximum solubility in water” value in data set [1] (water, about 25° C.) is “about 3.5 g/100 ml water”.
Consider `[Cl][Fe][Cl]` [ferrous chloride], for which the Ka in data set [3] is 5×10^−9.

These data come from patent US9096629B2, “Process of forming iron hydroxypyrone compounds” (Iron Therapeutics Holdings AG, priority 2011, dated 2015).
